Reference: patent US20260297070A1, “CYCLIC [COMPOUND LEFT OUT] WRN INHIBITORS” (Nimbus Wadjet, Inc., priority 2023, published 2026)

The molecules below were run against T1, human Werner helicase (WRN-BV08, Uniprot Q14191, amino acids 517-1235 with L1074F point mutation) (Homo sapiens, UniProt Q14191, L1074F) (assay: WRN (BV08) ADP-Glo Assay). Settings: 0.15 nM WRN, 5 μM ATP, 0.1 nM DNA duplex, 15 min preincubation, 60 min at 25° C., pH 7.5, 1% DMSO; read-out: ADP-Glo_hWRN_IC50.
T1 construct: Uniprot Q14191, amino acids 517-1235 with L1074F point mutation; TEV-cleavable 8×His (C, cleaved yes); made in house; host or cells: Sf9 insect cells (baculovirus)
Assay type: biochemical
In short: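 Percent inhibition was normalised to DMSO (max) and 20 μM NSC-617145 (min) controls from ADP-Glo luminescence, and IC50 values came from a four-parameter fit. The reaction ran 60 min at 25 °C with 0.15 nM WRN, 5 μM ATP and 0.1 nM duplex DNA.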

T1 sequence (Q14191 with tags, fused parts or gaps L1074F limits assumed): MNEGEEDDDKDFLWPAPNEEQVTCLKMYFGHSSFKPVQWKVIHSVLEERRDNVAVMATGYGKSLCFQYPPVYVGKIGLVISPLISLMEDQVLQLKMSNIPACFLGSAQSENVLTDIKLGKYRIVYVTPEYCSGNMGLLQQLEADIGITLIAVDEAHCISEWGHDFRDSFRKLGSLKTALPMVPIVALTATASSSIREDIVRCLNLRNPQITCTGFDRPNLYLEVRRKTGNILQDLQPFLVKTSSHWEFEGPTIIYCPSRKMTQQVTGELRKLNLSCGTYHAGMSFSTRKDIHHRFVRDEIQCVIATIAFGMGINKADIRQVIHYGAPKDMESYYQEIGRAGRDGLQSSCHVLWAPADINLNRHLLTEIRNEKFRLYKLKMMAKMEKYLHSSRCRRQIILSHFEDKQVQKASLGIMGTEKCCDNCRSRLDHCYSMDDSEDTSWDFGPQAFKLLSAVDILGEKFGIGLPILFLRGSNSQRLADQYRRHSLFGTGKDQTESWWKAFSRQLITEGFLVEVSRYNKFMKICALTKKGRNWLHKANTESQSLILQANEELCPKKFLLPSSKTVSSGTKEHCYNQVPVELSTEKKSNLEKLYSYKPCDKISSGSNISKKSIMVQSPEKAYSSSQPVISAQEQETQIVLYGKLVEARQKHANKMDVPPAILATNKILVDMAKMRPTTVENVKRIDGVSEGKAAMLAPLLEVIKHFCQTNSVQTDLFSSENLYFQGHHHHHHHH

Structure (SMILES) | IC50
O=C(Cc1ccc(S(F)(F)(F)(F)F)cc1)N(Cc1ccncc1)C1C=CS(=O)(=O)C1 (stereo not shown) [I-63, N-(1,1-dioxo-2,3-dihydro-1lambda6-thiophen-3-yl)-2-[4-(pentafluoro-lambda6-sulfanyl)phenyl]-N-[(pyridin-4-yl)methyl]acetamide] | < 0.5 µM
O=C(Cc1ccc(C2CCC2)cc1)N(Cc1ccncc1)C1C=CS(=O)(=O)C1 (stereo not shown) [I-177, 2-(4-cyclobutylphenyl)-N-(1,1-dioxo-2,3-dihydro-1lambda6-thiophen-3-yl)-N-[(pyridin-4-yl)methyl]acetamide] | 0.5 to 5 µM
O=C(Cc1ccc(-c2ccc(F)c(F)c2)cc1)N(Cc1ccncc1)C1C=CS(=O)(=O)C1 (stereo not shown) [I-143, 2-{3′,4′-difluoro-[1,1′-biphenyl]-4-yl}-N-(1,1-dioxo-2,3-dihydro-1lambda6-thiophen-3-yl)-N-[(pyridin-4-yl)methyl]acetamide] | 0.5 to 5 µM
COc1cc(CN(C(=O)C(C(=O)N(C)C)c2ccc(-c3ccc(F)cc3)cc2F)C2C=CS(=O)(=O)C2)ccn1 (single isomer, unassigned) [I-235, (2R**)-2-{3,4′-difluoro-[1,1′-biphenyl]-4-yl}-N-[(3R*)-1,1-dioxo-2,3-dihydro-1lambda6-thiophen-3-yl]-N-[(2-methoxypyridin-4-yl)methyl]-N′,N′-dimethylpropanediamide] | 5 to 10 µM
COCC(C(=O)N(Cc1ccnc(C(C)(C)O)c1)C1C=CS(=O)(=O)C1)c1ccc(-c2ccc(F)c(F)c2)cc1F (stereo not shown) [I-195, N-(1,1-dioxo-2,3-dihydro-1lambda6-thiophen-3-yl)-N-{[2-(2-hydroxypropan-2-yl)pyridin-4-yl]methyl}-3-methoxy-2-{3,3′,4′-trifluoro-[1,1′-biphenyl]-4-yl}propanamide] | 0.5 to 5 µM
CCOC(C(=O)N(Cc1ccnc(OC)c1)C1C=CS(=O)(=O)C1)c1ccc(-c2ccc(F)cc2)cc1 (stereo not shown) [I-113, N-(1,1-dioxo-2,3-dihydro-1lambda6-thiophen-3-yl)-2-ethoxy-2-{4′-fluoro-[1,1′-biphenyl]-4-yl}-N-[(2-methoxypyridin-4-yl)methyl]acetamide] | 0.5 to 5 µM
COc1cc(CN(C(=O)Cc2ncc(-c3ccc(F)c(F)c3)cc2F)C2C=CS(=O)(=O)C2)ccn1 (stereo not shown) [I-129, 2-[5-(3,4-difluorophenyl)-3-fluoropyridin-2-yl]-N-(1,1-dioxo-2,3-dihydro-1lambda6-thiophen-3-yl)-N-[(2-methoxypyridin-4-yl)methyl]acetamide] | 0.5 to 5 µM
COc1cc(CN(C(=O)C(OC)c2ccc(S(F)(F)(F)(F)F)cc2)C2C=CS(=O)(=O)C2)ccn1 (stereo not shown) [I-92, N-(1,1-dioxo-2,3-dihydro-1lambda6-thiophen-3-yl)-2-methoxy-N-[(2-methoxypyridin-4-yl)methyl]-2-[4-(pentafluoro-lambda6-sulfanyl)phenyl]acetamide] | 0.5 to 5 µM
COc1ccc2sc(CN(C(=O)Cc3ccc(-n4cccc4)cc3)C3C=CS(=O)(=O)C3)nc2c1 (stereo not shown) [I-102, N-(1,1-dioxo-2,3-dihydro-1lambda6-thiophen-3-yl)-N-[(5-methoxy-1,3-benzothiazol-2-yl)methyl]-2-[4-(1H-pyrrol-1-yl)phenyl]acetamide] | 0.5 to 5 µM
CN(C)C(=O)C(C(=O)N(Cc1ccnc(C(C)(C)O)c1)C1C=CS(=O)(=O)C1)c1ccc(-c2ccc(F)cc2)cc1F (stereo not shown) [I-21, 2-{3,4′-difluoro-[1,1′-biphenyl]-4-yl}-N-(1,1-dioxo-2,3-dihydro-1lambda6-thiophen-3-yl)-N-{[2-(2-hydroxypropan-2-yl)pyridin-4-yl]methyl}-N′,N′-dimethylpropanediamide] | < 0.5 µM
O=C(Cc1ccc(-n2cccc2)cc1)N(Cc1cccc(-n2cccn2)c1)C1C=CS(=O)(=O)C1 (stereo not shown) [I-232, N-(1,1-dioxo-2,3-dihydro-1lambda6-thiophen-3-yl)-N-{[3-(1H-pyrazol-1-yl)phenyl]methyl}-2-[4-(1H-pyrrol-1-yl)phenyl]acetamide] | 5 to 10 µM

Now from value to molecule:

IC50 | Structure (SMILES)
5 to 10 µM | CN(C)C(=O)C(C(=O)N(Cc1ccnc(C(C)(C)O)c1)C1C=CS(=O)(=O)C1)c1ccc(-c2ccc(F)cc2)cc1F (single isomer, unassigned) [I-258, (2R**)-2-{3,4′-difluoro-[1,1′-biphenyl]-4-yl}-N-[(3R*)-1,1-dioxo-2,3-dihydro-1lambda6-thiophen-3-yl]-N-{[2-(2-hydroxypropan-2-yl)pyridin-4-yl]methyl}-N′,N′-dimethylpropanediamide]
10 to 50 µM | COCC(C(=O)N(Cc1ccnc(C(C)(C)O)c1)C1C=CS(=O)(=O)C1)n1cc(-c2ccccc2)cn1 (stereo not shown) [I-324, N-(1,1-dioxo-2,3-dihydro-1lambda6-thiophen-3-yl)-N-{[2-(2-hydroxypropan-2-yl)pyridin-4-yl]methyl}-3-methoxy-2-(4-phenyl-1H-pyrazol-1-yl)propanamide]
> 50 µM | O=C(Cc1ccc(-n2cnnc2)cc1)N(Cc1ccncc1)C1C=CS(=O)(=O)C1 (stereo not shown) [I-532, N-(1,1-dioxo-2,3-dihydro-1lambda6-thiophen-3-yl)-N-[(pyridin-4-yl)methyl]-2-[4-(4H-1,2,4-triazol-4-yl)phenyl]acetamide]
10 to 50 µM | O=C(Cc1ccc(-n2cccc2)cc1)N(Cc1cnc2ccccc2c1)C1C=CS(=O)(=O)C1 (stereo not shown) [I-296, N-(1,1-dioxo-2,3-dihydro-1lambda6-thiophen-3-yl)-2-[4-(1H-pyrrol-1-yl)phenyl]-N-[(quinolin-3-yl)methyl]acetamide]
> 50 µM | O=C(Cc1ccc(-n2cccc2)cc1)N(Cc1ccc2[nH]ccc2c1)C1C=CS(=O)(=O)C1 (stereo not shown) [I-498, N-(1,1-dioxo-2,3-dihydro-1lambda6-thiophen-3-yl)-N-[(1H-indol-5-yl)methyl]-2-[4-(1H-pyrrol-1-yl)phenyl]acetamide]
5 to 10 µM | O=C(Cc1ccc(-n2cccc2)cc1)N(Cc1ccc(C2CC2)cn1)C1C=CS(=O)(=O)C1 (stereo not shown) [I-285, N-[(5-cyclopropylpyridin-2-yl)methyl]-N-(1,1-dioxo-2,3-dihydro-1lambda6-thiophen-3-yl)-2-[4-(1H-pyrrol-1-yl)phenyl]acetamide]
> 50 µM | COc1ccc2[nH]c(CC(=O)N(Cc3ccncc3)C3C=CS(=O)(=O)C3)cc2c1 (stereo not shown) [I-412, N-(1,1-dioxo-2,3-dihydro-1lambda6-thiophen-3-yl)-2-(5-methoxy-1H-indol-2-yl)-N-[(pyridin-4-yl)methyl]acetamide]
0.5 to 5 µM | COc1cc(CN(C(=O)Cn2ncc(-c3ccccc3)c2C)[C@@H]2C=CS(=O)(=O)C2)ccn1 [I-595, N-[(3R)-1,1-dioxo-2,3-dihydro-1lambda6-thiophen-3-yl]-N-[(2-methoxypyridin-4-yl)methyl]-2-(5-methyl-4-phenyl-1H-pyrazol-1-yl)acetamide]
0.5 to 5 µM | COc1cc(CN(C(=O)C(c2ccc(-c3ccc(F)c(F)c3)cc2F)n2cc(C(C)(C)O)cn2)[C@@H]2C=CS(=O)(=O)C2)ccn1 (stereo partly drawn) [I-758, N-[(3R)-1,1-dioxo-2,3-dihydro-1lambda6-thiophen-3-yl]-2-[4-(2-hydroxypropan-2-yl)-1H-pyrazol-1-yl]-N-[(2-methoxypyridin-4-yl)methyl]-2-{3,3′,4′-trifluoro-[1,1′-biphenyl]-4-yl}acetamide]
10 to 50 µM | O=C(Cn1nc(-c2ccc(F)cc2)oc1=O)N(Cc1ccncc1)C1C=CS(=O)(=O)C1 (stereo not shown) [I-349, N-(1,1-dioxo-2,3-dihydro-1lambda6-thiophen-3-yl)-2-[5-(4-fluorophenyl)-2-oxo-2,3-dihydro-1,3,4-oxadiazol-3-yl]-N-[(pyridin-4-yl)methyl]acetamide]
> 50 µM | O=C(Cc1coc(-c2ccc(F)cc2)n1)N(Cc1ccncc1)C1C=CS(=O)(=O)C1 (stereo not shown) [I-543, N-(1,1-dioxo-2,3-dihydro-1lambda6-thiophen-3-yl)-2-[2-(4-fluorophenyl)-1,3-oxazol-4-yl]-N-[(pyridin-4-yl)methyl]acetamide]
0.5 to 5 µM | O=C(Cn1cc(-c2ccc(F)c(F)c2)cn1)N(Cc1ccnc(N2CCNCC2)c1)C1C=CS(=O)(=O)C1 (stereo not shown) [I-787, 2-[4-(3,4-difluorophenyl)-1H-pyrazol-1-yl]-N-(1,1-dioxo-2,3-dihydro-1lambda6-thiophen-3-yl)-N-{[2-(piperazin-1-yl)pyridin-4-yl]methyl}acetamide]
5 to 10 µM | CC(C(=O)N(Cc1ccncc1)C1C=CS(=O)(=O)C1)c1ccc(-n2cccc2)cc1 (stereo not shown) [I-265, N-(1,1-dioxo-2,3-dihydro-1lambda6-thiophen-3-yl)-N-[(pyridin-4-yl)methyl]-2-[4-(1H-pyrrol-1-yl)phenyl]propanamide]
0.5 to 5 µM | CN(CCc1ccncc1)C(=O)c1ccc(CN(C(=O)Cc2ccc(-c3ccc(F)c(F)c3)cc2F)C2C=CS(=O)(=O)C2)cc1 (stereo not shown) [I-791, 4-{[N-(1,1-dioxo-2,3-dihydro-1lambda6-thiophen-3-yl)-2-{3,3′,4′-trifluoro-[1,1′-biphenyl]-4-yl}acetamido]methyl}-N-methyl-N-[2-(pyridin-4-yl)ethyl]benzamide]
> 50 µM | O=C(Cn1ncc2ccc(C(F)F)cc21)N(Cc1ccncc1)C1C=CS(=O)(=O)C1 (stereo not shown) [I-593, 2-[6-(difluoromethyl)-1H-indazol-1-yl]-N-(1,1-dioxo-2,3-dihydro-1lambda6-thiophen-3-yl)-N-[(pyridin-4-yl)methyl]acetamide]
0.5 to 5 µM | CC(C)(O)c1cc(CN(C(=O)Cc2ccc(C3(C(F)(F)F)CC3)cc2)C2C=CS(=O)(=O)C2)ccn1 (single isomer, unassigned) [I-663]
0.5 to 5 µM | O=C(Cc1ccc(S(F)(F)(F)(F)F)cc1)N(Cc1ccnc(OC(F)F)c1)C1C=CS(=O)(=O)C1 (stereo not shown) [I-605, N-{[2-(difluoromethoxy)pyridin-4-yl]methyl}-N-(1,1-dioxo-2,3-dihydro-1lambda6-thiophen-3-yl)-2-[4-(pentafluoro-lambda6-sulfanyl)phenyl]acetamide]
